Assays:
tubulin = biological target: T1, tubulin (Sus scrofa, UniProt P02550+P02554); design: method as in PMID 33203182, PMID 36893547, PMID 33730937, PMID 30525584, PMID 30530194; conditions: Fig. 4; read-out: tubulin inhibition IC50; cited from earlier work
T1 construct: purchased Cytoskeleton, USA

MDA-MB-231 cells [1] = experiment: Cell apoptosis analysis (annexin V-FITC/PI); format: cell-based; conditions: MDA-MB-231, IC50 dose, 24 h
Method: Annexin-V-FITC Apoptosis Detection Kit (Biovision, USA) was used to determine apoptotic cells according to manufacturer's instructions. Briefly, MDA-MB 231 cells (2 × 10^5 cells) were seeded in 6-well plates and cultured for 24 h. […] Cells were collected, washed with PBS and centrifuged. The cells were re-suspended in 500 μL of 1× binding buffer. 5 μL of annexin V-FITC and 5 μL of propidium iodide (PI […]) were added and the cells were incubated in the dark at room temperature for 5 min. The fluorescence of the stained cells was analyzed by flow cytometry using FACSCalibur (BD Biosciences, Mountain View, CA). The data were analyzed using the CellQuest software (BD Biosciences).[53,54]

MDA-MB-231 cells [2] = experiment: Cell cycle analysis by flow cytometry (PI); format: cell-based; conditions: MDA-MB-231, IC50 dose, 24 h; control 10.42%
Method: Propidium Iodide Flow Cytometry Kit for Cell Cycle Analysis (Abcam) was used according to manufacturer's instructions. Briefly, MDA-MB 231 cells (2 × 10^5 cells) were seeded in 6-well plates and cultured for 24 h. […] Cells were collected, washed with PBS and centrifuged. Subsequently, the cells were re-suspended and fixed in 66% ethanol on ice for at least 2 h. The cells were stained with a working solution containing propidium iodide (PI) in the dark at 37 °C for 30 min. DNA content of the cells were measured by flow cytometry using FACSCalibur (BD Biosciences, Mountain View, CA). The data were analyzed using the CellQuest software (BD Biosciences).[21]

T1 sequence (P02554 whole entry): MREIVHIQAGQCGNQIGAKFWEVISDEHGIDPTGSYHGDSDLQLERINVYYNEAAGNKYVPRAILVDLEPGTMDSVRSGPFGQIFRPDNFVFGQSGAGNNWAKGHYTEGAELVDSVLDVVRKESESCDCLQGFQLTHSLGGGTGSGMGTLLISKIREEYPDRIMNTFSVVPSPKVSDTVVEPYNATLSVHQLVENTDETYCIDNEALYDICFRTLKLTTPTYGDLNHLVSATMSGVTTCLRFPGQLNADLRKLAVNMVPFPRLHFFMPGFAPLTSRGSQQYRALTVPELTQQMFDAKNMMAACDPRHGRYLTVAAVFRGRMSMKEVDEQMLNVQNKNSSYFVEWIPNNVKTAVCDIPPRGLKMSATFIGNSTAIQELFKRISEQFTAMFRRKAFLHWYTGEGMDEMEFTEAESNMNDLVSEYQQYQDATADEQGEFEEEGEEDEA
T1 sequence (P02550 whole entry): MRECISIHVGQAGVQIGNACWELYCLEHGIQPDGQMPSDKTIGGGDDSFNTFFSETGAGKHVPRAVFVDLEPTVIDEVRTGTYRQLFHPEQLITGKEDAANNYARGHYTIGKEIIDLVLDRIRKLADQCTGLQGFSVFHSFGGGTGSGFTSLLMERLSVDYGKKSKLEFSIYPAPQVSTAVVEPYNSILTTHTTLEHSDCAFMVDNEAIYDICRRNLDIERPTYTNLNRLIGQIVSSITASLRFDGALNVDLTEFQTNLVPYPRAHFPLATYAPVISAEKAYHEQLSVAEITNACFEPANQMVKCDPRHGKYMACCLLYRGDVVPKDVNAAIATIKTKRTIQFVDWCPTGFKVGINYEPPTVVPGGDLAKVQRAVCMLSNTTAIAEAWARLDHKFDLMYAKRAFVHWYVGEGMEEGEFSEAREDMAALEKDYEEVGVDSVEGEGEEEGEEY

Compound: COc1ccc(OC)c(/C=C/C(=O)c2ccc(NC(=O)COc3cccc4cccnc34)cc2)c1 [X]
- IC50 (tubulin): 5.32 µM

Compound: C=C(c1ccc2c(ccn2C)c1)c1cc(C)nc2ccccc12 [XIII]
- IC50 (tubulin): 2.09 µM

Compound: COc1cc(C(=O)N/N=C/c2cc3ccc(OC(C)C)cc3nc2OC)cc(OC)c1OC [IX]
- IC50 (tubulin): 1.32 µM

Compound: COc1ccc2nc(Cl)c(C3CC(c4ccc(N)cc4)=NN3c3ccccc3)cc2c1 (stereo not shown) [XIV]
- IC50 (tubulin): 0.00911 µM

Compound: COc1cc2c(c(OC)c1OC)-c1ccc(OC)c(=O)cc1[C@@H](NC(C)=O)CC2 [Colchicine, colchicine]
- Early Apoptosis (%) (MDA-MB-231 cells [1]): 19.19 ± 0.87%
- Late Apoptosis (%) (MDA-MB-231 cells [1]): 6.62 ± 0.75%
- Necrosis (%) (MDA-MB-231 cells [1]): 11.41 ± 2.8%
- Total Cell Death (%) (MDA-MB-231 cells [1]): 37.22 ± 2.8%
- Necrosis (%) (MDA-MB-231 cells [1]; listed as colchicine): 11.41%
- cells population at G2 and M phases (MDA-MB-231 cells [2]): 26.51%

Reference: paper PMC11240139, “Exploring the antitumor potential of novel quinoline derivatives via tubulin polymerization inhibition in breast cancer; design, synthesis and molecular docking” (RSC Advances, 2024)
